Consider four compounds from patent US7521479B2 (priority 2001, dated 2009).

One series addresses Aβ1-40 (Homo sapiens, UniProt P05067). Conditions: cited from earlier work.
Another series deals with PrP^Sc (Mus musculus, UniProt P04925). To be noted: neuroblastoma cell line permanently infected with prions; cited from earlier work.
A further series relates to prions. To be noted: rodents, administered prophylactically; cited from earlier work.
A further series has as its system scrapie strain ME7. In kind it is in vivo, C57BL mice.
The conditions of series [1]: in vivo; cited from earlier work.
Where [2] appears, read: group d, spleens, at time of death.

Structures can show the parent of a compound that is named as a salt.

Aβ1-40, sequence (P05067 672-711 limits assumed): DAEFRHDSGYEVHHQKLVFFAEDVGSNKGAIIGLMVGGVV
PrP^Sc, sequence (P04925 23-230 limits assumed): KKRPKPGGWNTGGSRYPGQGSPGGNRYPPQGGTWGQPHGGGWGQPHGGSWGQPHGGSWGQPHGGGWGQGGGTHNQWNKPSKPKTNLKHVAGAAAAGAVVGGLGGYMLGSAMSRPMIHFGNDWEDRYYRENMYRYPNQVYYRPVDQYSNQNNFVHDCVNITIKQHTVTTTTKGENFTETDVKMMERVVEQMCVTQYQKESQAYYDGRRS

Consider `Oc1ccc(O)c2ccccc12` [1,4-dihydroxynaphthalene], for which the “inhibition of Aβ1-40 aggregation and neurotoxicity” value at Aβ1-40 is “inhibit Aβ1-40 aggregation and neurotoxicity at comparable molar concentrations to rifampicin”.
As for `Nc1c(/N=N/c2ccc(-c3ccc(/N=N/c4cc(S(=O)(=O)O)c5ccccc5c4N)cc3)cc2)cc(S(=O)(=O)O)c2ccccc12` [Congo red], the “accumulation of PrP^Sc” value on PrP^Sc is listed as “reduce the accumulation of PrP^Sc”. Besides, the disease onset entry with prions is “delay disease onset”.
Consider `Oc1ccc(O)cc1` [Hydroquinone], for which the “inhibition of Aβ1-40 aggregation and neurotoxicity” value on Aβ1-40 is “inhibit Aβ1-40 aggregation and neurotoxicity at comparable molar concentrations to rifampicin”.
As to `N=C(N)N` [guanidine hydrochloride], in the series on scrapie strain ME7 (setting [2]), the “PrP^Sc titers at the final endpoint versus group b” value is recorded as “lower PrP^Sc titers” and the “infectivity at the final endpoint versus group b” value is given as “lower infectivity”. Besides, in the series on scrapie strain ME7 (group d: ME7 i.p., oral treatment from 70 days post-infection, 15 then 40 mg/kg/day), the “survival (time of death) of treated infected mice” value was “live as long as the mice in group a”. Besides, in the series with scrapie strain ME7 (group f, prophylactic-like treatment), the “PrP^Sc level with treatment from one day post inoculation” value was “negligible or not much higher than that provided in the initial inoculum”. For the same compound, the “overall efficacy in scrapie” value in the series on scrapie strain ME7 (overall results) is reported as “effective in the treatment of scrapie”. The side effects entry in series [1] is listed as “bone marrow depression to renal problems to cardiac arrhythmia”.
